# Literature values as cited in publication PMC4422128, “Discovery of sea urchin NGFFFamide receptor unites a bilaterian neuropeptide family” (Open Biology, 2015).
# “Also recorded” adds a separate entry of the source. Positions of bridges follow the written chain, without caps; N, C: chain ends. No end group written: not given here.
# Columns and labels:
# rodents = rodents (b3); mammals
# Text: (§1) This will provide new insights into the evolution of the physiological and behavioural functions of NPS/NG peptide/CCAP-type neuropeptides in the animal kingdom. Based upon what is currently known, a common theme seems to be a role in control of behaviours that are associated with a heightened state of arousal. Thus, NPS causes anxiolysis and arousal in mammals, ...
# VRR1/GPR154 (NPSR) = test system: VRR1/GPR154 (NPSR); design: method as in PMID 15312648; conditions: purified from brain extracts
# [1] = test system: NPSR-type protein in Drosophila
# Text: Furthermore, the ligand that activ ...
# crab hearts = test system: crab hearts; design: method as in PMID 16593803
# arthropods = conditions: insects (b4)
# Text: as §1, with “Furthermore, the ligand that activ ... || Our discovery that the NPS/CCAP-type receptor in the sea urchin S. purpuratus is activated by the NG peptide NGFFFamide provides a basis for investigation of the physiological roles of NG peptides in deuterostomian invertebrates. This” for “This”
Substance,physiological action of NPS: anxiety (rodents),physiological action of NPS: arousal (rodents),"ligand activity at VRR1/GPR154, NPS (VRR1/GPR154 (NPSR))",activation of NPSR-type protein in Drosophila [1],effect on crab hearts (crab hearts),control/activation of ecdysis (arthropods)
"SFRNGVGTGMKKTSFQRAKS [NPS, neuropeptide-S]",anxiolytic-like action; also recorded: anxiolysis,causing arousal,endogenous ligand,–,–,–
"PFCNAFTGC-NH2 (disulfide 3-9 (inferred)) [CCAP, crustacean cardioactive peptide]",–,–,–,activates the NPSR-type protein in Drosophila,excitatory effect on crab hearts,activates the ecdysis motor programme; also recorded: controls ecdysis behaviour in insects
